Test results reported in patent US10654890B2, “Cyclic peptide derivative, method for preparing same and composition thereof” (priority 2014, dated 2020).

Columns and labels:
[1] = test system: human leukemia cells (K562); test: Cell proliferation test, human leukemia cells; assay type: cell-based; details: 2.5 μM and 25 μM, FIG. 10
Experimental: (§1) To see whether or not the astrocyte proliferation accelerating activity of the cyclic peptide derivative is a specific proliferative activity that is limited only to an astrocyte or it is based on a common cell proliferative activity, investigations were made by using normal human dermal fibroblasts (NHDF), human liver cancer cells (HepG2), and human leukemia cells (K562).
(§2) Seeding of each cell on a 96 well plate was carried out by adding 100 μl of a cell suspension in which normal human dermal fibroblasts are prepared at 2.5×10^4 cells/ml or human liver cancer cells and human leukemia cells are prepared at 5×10^4 cells/ml. Since the cyclic peptide derivative is added after dissolving it in PBS (−), only PBS (−) was added as a control.

[2] = test system: human liver cancer cells (HepG2); test: Cell proliferation test, human liver cancer cells; assay type: cell-based; details: 2.5 μM and 25 μM, FIG. 10
Experimental: as §1, §2

[3] = test system: normal human dermal fibroblasts (NHDF); test: Cell proliferation test, normal human dermal fibroblasts; assay type: cell-based
Experimental: as §1, §2

Water solubility = assay type: physicochemical
NGF gene = NGF gene expression in culture astrocyte (real time PCR); assay type: cell-based, mouse; details: 25 μM; from 8 hours to 24 hours after the addition; p<0.05 vs before the addition; calibrated to GAPDH
Experimental: By adding the cyclic peptide derivative of 25 μM to an astrocyte of the secondary subculture, the influence on expression of the gene of NGF, GDNF, VFGF-A, BDNF, and VGF as a representative neurotrophic factor was determined over time.
Except that a cell suspension of an astrocyte of the secondary subculture was prepared to have cell concentration of 3×10^5 cells/ml and the time for exposing the astrocyte to the above 25 μM cyclic peptide derivative was set at 0, 1, 2, 4, 8, 12, and 24 hours, the astrocyte was cultured in the same order as above <6>. As a control group, LG-D-MEM (0% FBS) not added with any cyclic peptide derivative was used.
Each astrocyte which has been exposed to the cyclic peptide derivative during each time described above was collected, and then, by using RNeasy Mini Kit (QIAGEN), extraction and purification of total RNA were carried out. The extracted total RNA was quantified by using Nano Photometer (IMPLEN). For the reverse transcription reaction, cDNA was synthesized by reacting 500 ng of total RNA with PrimeScript RT Master Mix (TaKaRa) at 37° C. for 15 minutes using GeneAmp PCR System 9600 (PERKIN ELMER), and the reaction was terminated by heating for 5 seconds at 85° C. […]

[4] = test system: senescence-accelerated model mouse SAMP8; test: Damaged area ratio of body hair surface by scanning probe microscope; assay type: in vivo
Description: As for the apparatus, tapping mode scanning probe microscope (SPM: SPA400, Hitachi High-Tech Science Corporation) was used.
As a sample, body hair in head and neck part of a mouse was collected by plucking from the origin, and the observation was made by using the tapping mode scanning probe microscope described above.

**Q.** Which results are given for `CCC1(C)Oc2cc(ccc2O)C(O)C(NC)C(=O)NC(C(C)C)C(=O)NC1C(=O)NC(CCC(=O)O)C(=O)O` (stereo not drawn) [cyclic peptide derivative]?
**A.** inhibitory activity on cell proliferation [1]: a strong inhibitory activity on cell proliferation was observed; inhibitory activity on cell proliferation [2]: a strong inhibitory activity on cell proliferation was observed; cytotoxicity for normal cells [3]: low; cell proliferation rate ([3]; 25 μM): ~80%; proliferation of NHDF cells compared to the group with no addition ([3]; 25 μM): inhibited in a significant sense; water solubility (Water solubility): water soluble; expression of the gene of NGF (NGF gene): increased; damage ratio on a surface of mouse body hair ([4]; SAMP8, oral 2.5 μg/kg/day): lowered to the same level as those of a mouse with normal aging; damage ratio on a surface of mouse body hair ([4]; SAMP8, oral 25 μg/kg/day): lowered to the same level as those of a mouse with normal aging
